The record followed here is patent US10781201B2, “Benzimidazole derivative having JNK inhibitory activity and use thereof” (INDUSTRY-UNIVERSITY COOPERATION FOUNDATION HANYANG …, priority 2017, dated 2020).

What is called IC50 is the midpoint of a concentration-inhibition curve. Low readings indicate inhibition by little substance, high ones a need for much substance.

A value given as a limit tells only on which side of the number the result lay.

human JNK3 enzyme, sequence (P53779 whole entry): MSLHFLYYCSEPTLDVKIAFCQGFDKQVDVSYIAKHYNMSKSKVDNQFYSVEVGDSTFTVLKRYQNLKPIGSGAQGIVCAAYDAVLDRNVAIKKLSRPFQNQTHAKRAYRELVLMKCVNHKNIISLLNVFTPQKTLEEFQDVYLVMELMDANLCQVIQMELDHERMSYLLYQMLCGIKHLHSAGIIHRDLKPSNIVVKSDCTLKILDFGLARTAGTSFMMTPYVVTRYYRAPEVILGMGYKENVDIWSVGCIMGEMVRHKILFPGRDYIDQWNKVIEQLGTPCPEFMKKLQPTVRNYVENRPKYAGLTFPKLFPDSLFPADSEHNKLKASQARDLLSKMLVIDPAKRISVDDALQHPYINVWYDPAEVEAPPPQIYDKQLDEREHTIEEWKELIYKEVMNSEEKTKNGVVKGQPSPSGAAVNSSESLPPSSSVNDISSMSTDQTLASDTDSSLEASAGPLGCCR

One assay addresses human JNK3 enzyme (Homo sapiens, UniProt P53779). The experiment in a line: Measurement of JNK3 enzymatic activity (33P-ATP filter-binding method). The settings on record: Table 1; ATP 10 μM, ATF2 3 μM. In kind it is biochemical. How it is done: First, a substrate was added to a prepared base reaction buffer solution (20 mM Hepes (pH 7.5), 10 mM MgCl2, 1 mM EGTA, 0.02% Brij35, 0.02 mg/ml BSA, 0.1 mM Na3VO4, 2 mM DTT, 1% DMSO), a human JNK3 enzyme was added into the prepared substrate solution, and the resulting solution was mixed. ATP (10 μM) and ATF2 (3 μM) were used as substrates, and among them, ATP was used as a common substrate. Next, the compound according to the present invention dissolved in 100% DMSO was added to an enzyme reaction solution, and incubated at room temperature for 20 minutes. Subsequently, ^33P-ATP was added to the mixed reaction solution to initiate the reaction, followed by incubation at room temperature for 2 hours, and enzymatic activity was detected by a filter-binding method. Specifically, 25 al per resulting solution was slowly spotted on P81 paper and placed in a scintillation vial, and then the paper was washed four times with 0.75% phosphoric acid for 10 minutes each and washed once with acetone for 5 minutes. 5 ml of a scintillation cocktail was added to the scintillation vial and signals were read using a scintillation counter.
`Oc1ccc2c(c1)nc(-c1ccc3ccccc3c1)n2-c1ccnc(NC2CCOCC2)n1` [Compound 9a, 2-(naphthalene-2-yl)-1-(2-((tetrahydro-2H-pyran-4-yl)amino)pyrimidin-4-yl)-1H-benzo[d]imidazole-5-ol] displayed an IC50 above 100 nM.
Same read-out and setting: as for `Oc1ccc2c(c1)nc(-c1ccc3c(c1)OCCO3)n2-c1ccnc(NC2CCOCC2)n1` [Compound 9c, 2-(2,3-dihydrobenzo[b][1,4]dioxin-6-yl)-1-(2-((tetrahydro-2H-pyran-4-yl)amino)pyrimidin-4-yl)-1H-benzo[d]imidazole-5-ol], the figure is above 100 nM; as for `Oc1ccc2c(c1)nc(-c1ccc3occc3c1)n2-c1ccnc(NC2CCOCC2)n1` [Compound 9d, 2-(benzofuran-5-yl)-1-(2-((tetrahydro-2H-pyran-4-yl)amino)pyrimidin-4-yl)-1H-benzo[d]imidazole-5-ol], above 100 nM.
Same read-out and setting: then `Oc1ccc2c(c1)nc(-c1ccc(Cl)c(Cl)c1)n2-c1ccnc(NC2CCOCC2)n1` [Compound 9e], with 30 to 100 nM.
Regarding `Oc1ccc2c(c1)nc(-c1ccc(F)c(C(F)(F)F)c1)n2-c1ccnc(NC2CCOCC2)n1` [Compound 9f, 2-(4-fluoro-3-(trifluoromethyl)phenyl)-1-(2-((tetrahydro-2H-pyran-4-yl)amino)pyrimidin-4-yl)-1H-benzo[d]imidazole-5-ol], the 50% inhibitory concentration (IC50) is 30 to 100 nM.
On the same count and under the same terms, then `Oc1ccc2c(c1)nc(-c1ccc3ccccc3c1)n2-c1ccnc(NC2CCCCC2)n1` [Compound 10a, 1-(2-(cyclohexylamino)pyrimidin-4-yl)-2-(naphthalene-2-yl)-1H-benzo[d]imidazole-5-ol], with above 100 nM.
The same measure, in the same setting: then `Oc1ccc2c(c1)nc(-c1ccc3c(c1)OCCO3)n2-c1ccnc(NC2CCCCC2)n1` [Compound 10c, 1-(2-(cyclohexylamino)pyrimidin-4-yl)-2-(2,3-dihydrobenzo[b][1,4]dioxin-6-yl)-1H-benzo[d]imidazole-5-ol], with above 100 nM.
Compound `Oc1ccc2c(c1)nc(-c1ccc3occc3c1)n2-c1ccnc(NC2CCCCC2)n1` [Compound 10d, 2-(benzofuran-5-yl)-1-(2-(cyclohexylamine)pyrimidin-4-yl)-1H-benzo[d]imidazole-5-ol] registered an IC50 above 100 nM.
The same measure, in the same setting: then `Oc1ccc2c(c1)nc(-c1ccc(Cl)c(Cl)c1)n2-c1ccnc(NC2CCCCC2)n1` [Compound 10e, 1-(2-(cyclohexylamino)pyrimidin-4-yl)-2-(3,4-dichlorophenyl)-1H-benzo[d]imidazole-5-ol], with above 100 nM; and `Oc1ccc2c(c1)nc(-c1ccc(F)c(C(F)(F)F)c1)n2-c1ccnc(NC2CCCCC2)n1` [Compound 10f, 1-(2-(cyclohexylamino)pyrimidin-4-yl)-2-(4-fluoro-3-(trifluoromethyl)phenyl)-1H-benzo[d]imidazole-5-ol], with above 100 nM; and `O=C(C1CC1)N1CCC[C@H](Nc2nccc(-n3c(-c4ccc5ccccc5c4)nc4cc(O)ccc43)n2)C1` [Compound 13a, (S)-cyclopropyl(3-((4-(5-hydroxy-2-(naphthalene-2-yl)-1H-benzo[d]imidazole-1-yl)pyrimidin-2-yl)amino)piperidine-1-yl)methanone], with 30 to 100 nM.
Compound `O=C(C1CC1)N1CCC[C@H](Nc2nccc(-n3c(-c4ccc5ccccc5n4)nc4cc(O)ccc43)n2)C1` [Compound 13b, (S)-cyclopropyl(3-((4-(5-hydroxy-2-(Quinoline-2-yl)-1H-benzo[d]imidazole-1-yl)pyrimidin-2-yl)amino)piperidine-1-yl)methanone] had a 50% inhibitory concentration (IC50) of 30 to 100 nM.
`O=C(C1CC1)N1CCC[C@H](Nc2nccc(-n3c(-c4ccc5c(c4)OCCO5)nc4cc(O)ccc43)n2)C1` [Compound 13c, (S)-cyclopropyl(3-((4-(2-(2,3-dihydrobenzo[b][1,4]dioxin-6-yl)-5-hydroxy-1H-benzo[d]imidazole-1-yl)pyrimidin-2-yl)amino)piperidine-1-yl)methanone]: the half-maximal inhibitory concentration (IC50) is 30 to 100 nM.
The same measure, in the same setting: then `O=C(C1CC1)N1CCC[C@H](Nc2nccc(-n3c(-c4ccc5occc5c4)nc4cc(O)ccc43)n2)C1` [Compound 13d, (S)-(3-(4-(2-(benzofuran-5-yl)-5-hydroxy-1H-benz[d]imidazole-1-yl)pyrimidin-2-ylamino)piperidine-1-yl)(cyclopropyl)methanone], with below 30 nM.
For the compound `O=C(C1CC1)N1CCC[C@H](Nc2nccc(-n3c(-c4ccc(Cl)c(Cl)c4)nc4cc(O)ccc43)n2)C1` [Compound 13e, (S)-cyclopropyl(3-((4-(2-(3,4-dichlorophenyl)-5-hydroxy-1H-benzo[d]imidazole-1-yl)pyrimidin-2-yl)amino)piperidine-1-yl)methanone], the half-inhibitory concentration (IC50) is below 30 nM.
Still for that read-out and setting: then `O=C(C1CC1)N1CCC[C@H](Nc2nccc(-n3c(-c4ccc(F)c(C(F)(F)F)c4)nc4cc(O)ccc43)n2)C1` [Compound 13f, (S)-cyclopropyl(3-((4-(2-(4-fluoro-3-(trifluoromethyl)phenyl)-5-hydroxy-1H-benzo[d]imidazole-1-yl)pyrimidin-2-yl)amino)piperidine-1-yl)methanone], with 30 to 100 nM; and `O=C(C1CC1)N1CCC[C@H](Nc2nccc(-n3c(-c4ccc5c(c4)OCO5)nc4cc(O)ccc43)n2)C1` [Compound 13g, (S)-(3-(4-(2-(benzo[d][1,3]dioxole-5-yl)-5-hydroxy-1H-benz[d]imidazole-1-yl)pyrimidin-2-ylamino)piperidine-1-yl)(cyclopropyl)methanone], with 30 to 100 nM.

Still in this assay, the particulars now being: Table 2; ATP 10 μM, ATF2 3 μM.
For the compound `Oc1ccc2nc(-c3ccc4ccccc4c3)n(-c3ccnc(NC4CCOCC4)n3)c2c1` [Compound 22a, 2-(naphthalene-2-yl)-1-(2-((tetrahydro-2H-pyran-4-yl)amino)pyrimidin-4-yl)-1H-benzo[d]imidazole-6-ol], the IC50 was 30 to 100 nM.
Same read-out and setting: then `Oc1ccc2nc(-c3ccc4ccccc4n3)n(-c3ccnc(NC4CCOCC4)n3)c2c1` [Compound 22b, 2-(Quinoline-2-yl)-1-(2-((tetrahydro-2H-pyran-4-yl)amino)pyrimidin-4-yl)-1H-benzo[d]imidazole-6-ol], with 30 to 100 nM.
Still for that read-out and setting: then `Oc1ccc2nc(-c3ccc4c(c3)OCCO4)n(-c3ccnc(NC4CCOCC4)n3)c2c1` [Compound 22c, 2-(2,3-dihydrobenzo[b][1,4]dioxin-6-yl)-1-(2-((tetrahydro-2H-pyran-4-yl)amino)pyrimidin-4-yl)-1H-benzo[d]imidazole-6-ol], with 30 to 100 nM; and `Oc1ccc2nc(-c3ccc4occc4c3)n(-c3ccnc(NC4CCOCC4)n3)c2c1` [Compound 22d, 2-(benzofuran-5-yl)-1-(2-((tetrahydro-2H-pyran-4-yl)amino)pyrimidin-4-yl)-1H-benzo[d]imidazole-6-ol], with 30 to 100 nM; and `Oc1ccc2nc(-c3ccc4ccccc4c3)n(-c3ccnc(NC4CCCCC4)n3)c2c1` [Compound 23a, 1-(2-(cyclohexylamino)pyrimidin-4-yl)-2-(naphthalene-2-yl)-1H-benzo[d]imidazole-6-ol], with above 100 nM.
The compound `Oc1ccc2nc(-c3ccc4ccccc4n3)n(-c3ccnc(NC4CCCCC4)n3)c2c1` [Compound 23b, 3-(2-(cyclohexylamino)pyrimidin-4-yl)-2-(Quinoline-2-yl)-3H-benz[d]imidazole-5-ol] gave a 50% inhibitory concentration (IC50) above 100 nM.
On to `Oc1ccc2nc(-c3ccc4c(c3)OCCO4)n(-c3ccnc(NC4CCCCC4)n3)c2c1` [Compound 23c, 1-(2-(cyclohexylamino)pyrimidin-4-yl)-2-(2,3-dihydrobenzo[b][1,4]dioxin-6-yl)-1H-benzo[d]imidazole-6-ol], for which the IC50 was above 100 nM.
`Oc1ccc2nc(-c3ccc4occc4c3)n(-c3ccnc(NC4CCCCC4)n3)c2c1` [Compound 23d, 2-(benzofuran-5-yl)-1-(2-(cyclohexylamino)pyrimidin-4-yl)-1H-benzo[d]imidazole-6-ol] gave an IC50 above 100 nM.
`Oc1ccc2nc(-c3ccc(Cl)c(Cl)c3)n(-c3ccnc(NC4CCCCC4)n3)c2c1` [Compound 23e, 1-(2-(cyclohexylamino)pyrimidin-4-yl)-2-(3,4-dichlorophenyl)-1H-benzo[d]imidazole-6-ol] yielded a half-maximal inhibitory concentration (IC50) of 30 to 100 nM.
Still for that read-out and setting: then `Oc1ccc2nc(-c3ccc(F)c(C(F)(F)F)c3)n(-c3ccnc(NC4CCCCC4)n3)c2c1` [Compound 23f, 1-(2-(cyclohexylamino)pyrimidin-4-yl)-2-(4-fluoro-3-(trifluoromethyl)phenyl)-1H-benzo[d]imidazole-6-ol], with above 100 nM; and `O=C(C1CC1)N1CCC[C@H](Nc2nccc(-n3c(-c4ccc5ccccc5n4)nc4ccc(O)cc43)n2)C1` [Compound 26b, (S)-cyclopropyl(3-(4-(6-hydroxy-2-(Quinoline-2-yl)-1H-benzo[d]imidazole-1-yl)pyrimidin-2-ylamino)piperidine-1-yl)methanone], with 30 to 100 nM.
On the same count and under the same terms, then `O=C(C1CC1)N1CCC[C@H](Nc2nccc(-n3c(-c4ccc5occc5c4)nc4ccc(O)cc43)n2)C1` [Compound 26d, (S)-(3-((4-(2-(benzofuran-5-yl)-6-hydroxy-1H-benzo[d]imidazole-1-yl)pyrimidin-2-yl)amino)piperidine-1-yl)(cyclopropyl)methanone], with below 30 nM; and `O=C(C1CC1)N1CCC[C@H](Nc2nccc(-n3c(-c4ccc(Cl)c(Cl)c4)nc4ccc(O)cc43)n2)C1` [Compound 26e, (S)-cyclopropyl(3-((4-(2-(3,4-dichlorophenyl)-6-hydroxy-1H-benzo[d]imidazole-1-yl)pyrimidin-2-yl)amino)piperidine-1-yl)methanone], with below 30 nM.
